Assay results published in ChEMBL document CHEMBL1201862, “PubChem BioAssay data set” (2004).
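Assay format: 96-well plates, 48-hour exposure. Here, GI50 denotes the concentration required for 50% inhibition of growth.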 Active and inactive are the calls of the source. No stated cut-off is given here; in the data, active = GI50 up to about 1.1 µM and inactive = higher.

Experiments:
Test in all cases: inhibition of tumour cell growth, NCI panel, 48 h
UACC-257 = test system: UACC-257
SN12C = test system: SN12C
A498 = test system: A498
SK-MEL-28 = test system: SK-MEL-28
OVCAR-4 = test system: OVCAR-4
HOP-62 = test system: HOP-62
MDA-MB-231 = test system: MDA-MB-231
MDA-MB-435 = test system: MDA-MB-435
OVCAR-3 = test system: OVCAR-3
786-0 = test system: 786-0
MCF7 = test system: MCF7
ACHN = test system: ACHN
UO-31 = test system: UO-31
IGROV-1 = test system: IGROV-1
HL-60 = test system: HL-60
HCC 2998 = test system: HCC 2998
NCI-H23 = test system: NCI-H23
PC-3 = test system: PC-3
TK-10 = test system: TK-10
NCI-H226 = test system: NCI-H226

SMILES | GI50 (UACC-257) | GI50 (SN12C) | GI50 (A498) | GI50 (SK-MEL-28) | GI50 (OVCAR-4) | GI50 (HOP-62) | GI50 (MDA-MB-231) | GI50 (MDA-MB-435) | GI50 (OVCAR-3) | GI50 (786-0) | GI50 (MCF7) | GI50 (ACHN) | GI50 (UO-31) | GI50 (IGROV-1) | GI50 (HL-60) | GI50 (HCC 2998) | GI50 (NCI-H23) | GI50 (PC-3) | GI50 (TK-10) | GI50 (NCI-H226)
CC(C)N(CC(=O)O)CC(=O)O | > 100 µM (inactive) | > 100 µM (inactive) | > 100 µM (inactive) | > 100 µM (inactive) | > 100 µM (inactive) | > 100 µM (inactive) | > 100 µM (inactive) | > 100 µM (inactive) | > 100 µM (inactive) | > 100 µM (inactive) | > 100 µM (inactive) | > 100 µM (inactive) | > 100 µM (inactive) | > 100 µM (inactive) | > 100 µM (inactive) | > 100 µM (inactive) | > 100 µM (inactive) | > 100 µM (inactive) | > 100 µM (inactive) | > 100 µM (inactive)
NC1(c2cc3ccccc3s2)CCCCCC1 | 16.3 µM (inactive) | 16.8 µM (inactive) | 20.7 µM (inactive) | 16.7 µM (inactive) | 14.4 µM (inactive) | 14.6 µM (inactive) | 15.7 µM (inactive) | 16.1 µM (inactive) | 15.7 µM (inactive) | 15.5 µM (inactive) | 16.1 µM (inactive) | 19.3 µM (inactive) | 14.4 µM (inactive) | 14.7 µM (inactive) | 14.8 µM (inactive) | 1.98 µM (inactive) | 17.3 µM (inactive) | 11.7 µM (inactive) | 15.4 µM (inactive) | 19.8 µM (inactive)
C(=N\N=C1NCCCN1)/c1ccc2ccccc2c1 | 17.3 µM (inactive) | 12.4 µM (inactive) | 3.01 µM (inactive) | 15.9 µM (inactive) | 19.3 µM (inactive) | 12.1 µM (inactive) | 6.32 µM (inactive) | 5.89 µM (inactive) | 14.7 µM (inactive) | 11.7 µM (inactive) | 3.4 µM (inactive) | 10.5 µM (inactive) | 11.6 µM (inactive) | 11.7 µM (inactive) | 5.24 µM (inactive) | 2.64 µM (inactive) | 17.6 µM (inactive) | 10.3 µM (inactive) | 18.6 µM (inactive) | 12.4 µM (inactive)
COC(=O)c1ccc(C)cc1CC1Cc2c(C)cccc2C1=O (stereo not given) | 10.4 µM (inactive) | 6.62 µM (inactive) | 4.95 µM (inactive) | 15.2 µM (inactive) | 25.5 µM (inactive) | 13.6 µM (inactive) | 2.32 µM (inactive) | 1.82 µM (inactive) | 3.96 µM (inactive) | 12.8 µM (inactive) | 2.11 µM (inactive) | 22.2 µM (inactive) | 15.9 µM (inactive) | 5.62 µM (inactive) | 4.54 µM (inactive) | 11.1 µM (inactive) | 12.4 µM (inactive) | 6.5 µM (inactive) | 11.5 µM (inactive) | 13.7 µM (inactive)
O=C(/C=C1\Nc2ccccc2N=C1NC12CC3CC(CC(C3)C1)C2)c1ccc(Br)cc1 | > 10 µM (inactive) | > 10 µM (inactive) | > 10 µM (inactive) | > 10 µM (inactive) | > 10 µM (inactive) | > 10 µM (inactive) | > 10 µM (inactive) | > 10 µM (inactive) | > 10 µM (inactive) | > 10 µM (inactive) | > 10 µM (inactive) | > 10 µM (inactive) | > 10 µM (inactive) | > 10 µM (inactive) | > 10 µM (inactive) | > 10 µM (inactive) | > 10 µM (inactive) | > 10 µM (inactive) | > 10 µM (inactive) | > 10 µM (inactive)
CC(C)c1nc(Cl)c(Cl)c(Cl)n1 | 4.29 µM (inactive) | 4.24 µM (inactive) | 23.8 µM (inactive) | 14.2 µM (inactive) | 15.5 µM (inactive) | 12.6 µM (inactive) | 8.85 µM (inactive) | 4.2 µM (inactive) | 1.99 µM (inactive) | 2.99 µM (inactive) | 1.75 µM (inactive) | 0.769 µM (active) | 1.19 µM (inactive) | 3.08 µM (inactive) | 1.71 µM (inactive) | 3.49 µM (inactive) | 4.06 µM (inactive) | 4.31 µM (inactive) | 11.4 µM (inactive) | 17.7 µM (inactive)
CCOC(=O)CCSc1nc2ccc(I)cc2c(=O)n1Cc1ccccc1 | 25.5 µM (inactive) | 31.8 µM (inactive) | 24.6 µM (inactive) | > 65.6 µM (inactive) | 19.5 µM (inactive) | 26.5 µM (inactive) | 28.2 µM (inactive) | 27.5 µM (inactive) | 17.9 µM (inactive) | 25.6 µM (inactive) | 29.1 µM (inactive) | 29.5 µM (inactive) | 0.395 µM (active) | 9.91 µM (inactive) | 19.5 µM (inactive) | 26.5 µM (inactive) | 15.6 µM (inactive) | 41.7 µM (inactive) | 39.4 µM (inactive) | 21.6 µM (inactive)
